From the NIST ThermoML archive (doi:10.1021/je060411g)

Assay: molar heat capacity at constant pressure
Settings: 101.33 kPa

CCC(O)CC [3-pentanol]
Settings	molar heat capacity at constant pressure [J/K/mol]
152.99 K, Liquid	150.52
154.56 K, Crystal	105.87
155.94 K, Liquid	150.86
156.51 K, Crystal	107.42
158.46 K, Crystal	108.86
158.9 K, Liquid	151.16
160 K, Crystal	118.8
160.42 K, Crystal	110.34
161.85 K, Liquid	151.55
162.38 K, Crystal	111.71
164.37 K, Crystal	103.35
164.81 K, Liquid	152.15
166.37 K, Crystal	115.34
167.78 K, Liquid	153.56
168.31 K, Crystal	115.72
170 K, Crystal	110.3
170.23 K, Crystal	116.98
170.76 K, Liquid	159.22
172.17 K, Crystal	118.28
174.1 K, Crystal	119.45
176.01 K, Crystal	120.74
177.92 K, Crystal	121.98
179.81 K, Crystal	123.05
180 K, Crystal	123.2
181.69 K, Crystal	124.1
183.56 K, Crystal	125.1
185.42 K, Crystal	126.2
187.27 K, Crystal	127.45
189.1 K, Crystal	129.05
190 K, Crystal	129.8
190.93 K, Crystal	130.67
191.18 K, Crystal	146.69
192.74 K, Crystal	132.33
193.08 K, Crystal	133.23
194.53 K, Crystal	134.71
194.98 K, Crystal	136.27
196.31 K, Crystal	137.6
197.93 K, Crystal	143.45
198.06 K, Crystal	141.76
200 K, Crystal	155.5
206.59 K, Liquid	163.08
206.86 K, Liquid	162.81
208.54 K, Liquid	163.45
209.46 K, Liquid	164.31
210 K, Liquid	164.2
210.2 K, Liquid	164.21
211.87 K, Liquid	164.95
212.32 K, Liquid	165.57
213.52 K, Liquid	165.62
215.16 K, Liquid	167.02
215.17 K, Liquid	166.57
216.82 K, Liquid	167.31
217.99 K, Liquid	168.45
218.46 K, Liquid	168.22
220 K, Liquid	169.1
220.1 K, Liquid	169.14
220.8 K, Liquid	170.05
221.73 K, Liquid	170.07
223.36 K, Liquid	170.87
223.59 K, Liquid	171.64
224.98 K, Liquid	171.87
226.37 K, Liquid	173.5
226.59 K, Liquid	172.95
228.2 K, Liquid	173.95
229.13 K, Liquid	175.38
229.81 K, Liquid	174.99
230 K, Liquid	175.1
231.41 K, Liquid	176.24
231.88 K, Liquid	177.23
233 K, Liquid	177.29
234.59 K, Liquid	178.66
234.61 K, Liquid	179.15
236.17 K, Liquid	179.8
237.32 K, Liquid	181.22
237.75 K, Liquid	180.73
239.32 K, Liquid	182.03
240 K, Liquid	183.5
240.01 K, Liquid	183.55
240.89 K, Liquid	183.27
242.45 K, Liquid	184.57
242.69 K, Liquid	185.78
244 K, Liquid	185.93
245.34 K, Liquid	188.15
245.55 K, Liquid	187.34
247.09 K, Liquid	188.71
247.98 K, Liquid	190.62
248.63 K, Liquid	190.19
250 K, Liquid	191.4
250.16 K, Liquid	191.69
250.61 K, Liquid	193.22
251.68 K, Liquid	193.3
253.2 K, Liquid	194.61
253.21 K, Liquid	195.73
254.72 K, Liquid	195.45
255.8 K, Liquid	198.08
256.23 K, Liquid	197.32
257.73 K, Liquid	198.94
258.37 K, Liquid	201.08
259.23 K, Liquid	200.52
260 K, Liquid	201
260.72 K, Liquid	202.41
260.93 K, Liquid	204.02
262.21 K, Liquid	203.99
263.46 K, Liquid	207.15
263.69 K, Liquid	205.59
265.16 K, Liquid	207.37
265.98 K, Liquid	210.2
266.63 K, Liquid	209.14
268.09 K, Liquid	210.93
268.47 K, Liquid	213.3
269.54 K, Liquid	212.66
270 K, Liquid	213.6
270.95 K, Liquid	216.47
270.99 K, Liquid	214.5
272.44 K, Liquid	216.21
273.41 K, Liquid	219.31
273.87 K, Liquid	218
275.3 K, Liquid	219.86
275.85 K, Liquid	222.84
276.73 K, Liquid	221.67
278.15 K, Liquid	223.45
278.28 K, Liquid	226.05
279.56 K, Liquid	225.24
280 K, Liquid	227
280.68 K, Liquid	229.31
280.97 K, Liquid	227.16
282.37 K, Liquid	228.87
283.07 K, Liquid	232.43
283.76 K, Liquid	230.71
285.15 K, Liquid	232.47
285.44 K, Liquid	235.64
286.54 K, Liquid	234.44
287.8 K, Liquid	239.08
287.92 K, Liquid	236.08
289.29 K, Liquid	237.78
290 K, Liquid	238.7
290.66 K, Liquid	239.56
292.02 K, Liquid	241.24
293.38 K, Liquid	242.8
294.74 K, Liquid	244.64
296.09 K, Liquid	246.1
297.43 K, Liquid	247.9
298.15 K, Liquid	248.7
298.77 K, Liquid	249.27
300 K, Liquid	250.7
300.11 K, Liquid	250.87
301.44 K, Liquid	252.15
302.77 K, Liquid	254
304.09 K, Liquid	255.2
305.41 K, Liquid	256.63
306.73 K, Liquid	258.11
308.04 K, Liquid	259.35
309.35 K, Liquid	260.74
